{
  "source": "PubChem BioAssay AID1259407",
  "about": "(Chemical Carcinogenesis Research Information System (CCRIS), 2018)",
  "tested_on": "CCRIS mutagenicity, Ames/micronucleus/aberration tests",
  "experiment": "CCRIS mutagenicity studies",
  "note": "Calls of active or inactive are those of the source. No rule for the calls is given here.",
  "data": [
    {"smiles": "CCCCC(CC)COC(=O)c1ccc(N(C)C)c([N+](=O)[O-])c1", "note": "(centres undefined)", "values": [
      {"measurement": "mutagenic call", "setting": "Test System: AMES SALMONELLA TYPHIMURIUM, Strain/Indicator: TA98, Metabolic Activation: HAMSTER, LIVER, S-9, AROCLOR 1254 (10%), Method: STANDARD PLATE", "result": "active; positive"},
      {"measurement": "mutagenic call", "setting": "Test System: AMES SALMONELLA TYPHIMURIUM, Strain/Indicator: TA98, Metabolic Activation: HAMSTER, LIVER, S-9, AROCLOR 1254, Method: STANDARD PLATE", "result": "active; positive"},
      {"measurement": "mutagenic call", "setting": "Test System: AMES SALMONELLA TYPHIMURIUM, Strain/Indicator: TA98, Metabolic Activation: NONE, Method: STANDARD PLATE", "result": "active; positive"},
      {"measurement": "mutagenic call", "setting": "Test System: AMES SALMONELLA TYPHIMURIUM, Strain/Indicator: TA98, Metabolic Activation: RAT, LIVER, S-9, AROCLOR 1254 (10%), Method: STANDARD PLATE", "result": "active; positive"},
      {"measurement": "mutagenic call", "setting": "Test System: AMES SALMONELLA TYPHIMURIUM, Strain/Indicator: TA98, Metabolic Activation: RAT, LIVER, S-9, AROCLOR 1254, Method: STANDARD PLATE", "result": "active; positive"},
      {"measurement": "mutagenic call", "setting": "Test System: AMES SALMONELLA TYPHIMURIUM, Strain/Indicator: TA100, Metabolic Activation: HAMSTER, LIVER, S-9, AROCLOR 1254 (10%), Method: STANDARD PLATE", "result": "inactive; negative"},
      {"measurement": "mutagenic call", "setting": "Test System: AMES SALMONELLA TYPHIMURIUM, Strain/Indicator: TA100, Metabolic Activation: HAMSTER, LIVER, S-9, AROCLOR 1254, Method: STANDARD PLATE", "result": "inactive; negative"},
      {"measurement": "mutagenic call", "setting": "Test System: AMES SALMONELLA TYPHIMURIUM, Strain/Indicator: TA100, Metabolic Activation: NONE, Method: STANDARD PLATE", "result": "inactive; negative"},
      {"measurement": "mutagenic call", "setting": "Test System: AMES SALMONELLA TYPHIMURIUM, Strain/Indicator: TA100, Metabolic Activation: RAT, LIVER, S-9, AROCLOR 1254 (10%), Method: STANDARD PLATE", "result": "inactive; negative"},
      {"measurement": "mutagenic call", "setting": "Test System: AMES SALMONELLA TYPHIMURIUM, Strain/Indicator: TA100, Metabolic Activation: RAT, LIVER, S-9, AROCLOR 1254, Method: STANDARD PLATE", "result": "inactive; negative"},
      {"measurement": "mutagenic call", "setting": "Test System: AMES SALMONELLA TYPHIMURIUM, Strain/Indicator: TA1535, Metabolic Activation: HAMSTER, LIVER, S-9, AROCLOR 1254 (10%), Method: STANDARD PLATE", "result": "inactive; negative"},
      {"measurement": "mutagenic call", "setting": "Test System: AMES SALMONELLA TYPHIMURIUM, Strain/Indicator: TA1535, Metabolic Activation: HAMSTER, LIVER, S-9, AROCLOR 1254, Method: STANDARD PLATE", "result": "inactive; negative"},
      {"measurement": "mutagenic call", "setting": "Test System: AMES SALMONELLA TYPHIMURIUM, Strain/Indicator: TA1535, Metabolic Activation: NONE, Method: STANDARD PLATE", "result": "inactive; negative"},
      {"measurement": "mutagenic call", "setting": "Test System: AMES SALMONELLA TYPHIMURIUM, Strain/Indicator: TA1535, Metabolic Activation: RAT, LIVER, S-9, AROCLOR 1254 (10%), Method: STANDARD PLATE", "result": "inactive; negative"},
      {"measurement": "mutagenic call", "setting": "Test System: AMES SALMONELLA TYPHIMURIUM, Strain/Indicator: TA1535, Metabolic Activation: RAT, LIVER, S-9, AROCLOR 1254, Method: STANDARD PLATE", "result": "inactive; negative"},
      {"measurement": "mutagenic call", "setting": "Test System: AMES SALMONELLA TYPHIMURIUM, Strain/Indicator: TA1537, Metabolic Activation: HAMSTER, LIVER, S-9, AROCLOR 1254 (10%), Method: STANDARD PLATE", "result": "active; positive"},
      {"measurement": "mutagenic call", "setting": "Test System: AMES SALMONELLA TYPHIMURIUM, Strain/Indicator: TA1537, Metabolic Activation: HAMSTER, LIVER, S-9, AROCLOR 1254, Method: STANDARD PLATE", "result": "active; positive"},
      {"measurement": "mutagenic call", "setting": "Test System: AMES SALMONELLA TYPHIMURIUM, Strain/Indicator: TA1537, Metabolic Activation: NONE, Method: STANDARD PLATE", "result": "active; positive"},
      {"measurement": "mutagenic call", "setting": "Test System: AMES SALMONELLA TYPHIMURIUM, Strain/Indicator: TA1537, Metabolic Activation: RAT, LIVER, S-9, AROCLOR 1254 (10%), Method: STANDARD PLATE", "result": "active; positive"},
      {"measurement": "mutagenic call", "setting": "Test System: AMES SALMONELLA TYPHIMURIUM, Strain/Indicator: TA1537, Metabolic Activation: RAT, LIVER, S-9, AROCLOR 1254, Method: STANDARD PLATE", "result": "active; positive"},
      {"measurement": "mutagenic call", "setting": "Test System: AMES SALMONELLA TYPHIMURIUM, Strain/Indicator: TA1538, Metabolic Activation: HAMSTER, LIVER, S-9, AROCLOR 1254 (10%), Method: STANDARD PLATE", "result": "active; positive"},
      {"measurement": "mutagenic call", "setting": "Test System: AMES SALMONELLA TYPHIMURIUM, Strain/Indicator: TA1538, Metabolic Activation: HAMSTER, LIVER, S-9, AROCLOR 1254, Method: STANDARD PLATE", "result": "active; positive"},
      {"measurement": "mutagenic call", "setting": "Test System: AMES SALMONELLA TYPHIMURIUM, Strain/Indicator: TA1538, Metabolic Activation: NONE, Method: STANDARD PLATE", "result": "active; positive"},
      {"measurement": "mutagenic call", "setting": "Test System: AMES SALMONELLA TYPHIMURIUM, Strain/Indicator: TA1538, Metabolic Activation: RAT, LIVER, S-9, AROCLOR 1254 (10%), Method: STANDARD PLATE", "result": "active; positive"},
      {"measurement": "mutagenic call", "setting": "Test System: AMES SALMONELLA TYPHIMURIUM, Strain/Indicator: TA1538, Metabolic Activation: RAT, LIVER, S-9, AROCLOR 1254, Method: STANDARD PLATE", "result": "active; positive"}
    ]},
    {"smiles": "Nc1cc([N+](=O)[O-])cc(Cl)c1O", "values": [
      {"measurement": "mutagenic call", "setting": "Test System: AMES SALMONELLA TYPHIMURIUM, Strain/Indicator: TA97, Metabolic Activation: HAMSTER, LIVER, S-9, AROCLOR 1254 (10%), Method: PREINCUBATION", "result": "active; positive"},
      {"measurement": "mutagenic call", "setting": "Test System: AMES SALMONELLA TYPHIMURIUM, Strain/Indicator: TA97, Metabolic Activation: NONE, Method: PREINCUBATION", "result": "active; positive"},
      {"measurement": "mutagenic call", "setting": "Test System: AMES SALMONELLA TYPHIMURIUM, Strain/Indicator: TA97, Metabolic Activation: RAT, LIVER, S-9, AROCLOR 1254 (10%), Method: PREINCUBATION", "result": "active; positive"},
      {"measurement": "mutagenic call", "setting": "Test System: AMES SALMONELLA TYPHIMURIUM, Strain/Indicator: TA98, Metabolic Activation: HAMSTER, LIVER, S-9, AROCLOR 1254 (10%), Method: PREINCUBATION", "result": "active; positive"},
      {"measurement": "mutagenic call", "setting": "Test System: AMES SALMONELLA TYPHIMURIUM, Strain/Indicator: TA98, Metabolic Activation: NONE, Method: PREINCUBATION", "result": "active; positive"},
      {"measurement": "mutagenic call", "setting": "Test System: AMES SALMONELLA TYPHIMURIUM, Strain/Indicator: TA98, Metabolic Activation: RAT, LIVER, S-9, AROCLOR 1254 (10%), Method: PREINCUBATION", "result": "active; positive"},
      {"measurement": "mutagenic call", "setting": "Test System: AMES SALMONELLA TYPHIMURIUM, Strain/Indicator: TA100, Metabolic Activation: HAMSTER, LIVER, S-9, AROCLOR 1254 (10%), Method: PREINCUBATION", "result": "inactive; negative"},
      {"measurement": "mutagenic call", "setting": "Test System: AMES SALMONELLA TYPHIMURIUM, Strain/Indicator: TA100, Metabolic Activation: NONE, Method: PREINCUBATION", "result": "active; positive"},
      {"measurement": "mutagenic call", "setting": "Test System: AMES SALMONELLA TYPHIMURIUM, Strain/Indicator: TA100, Metabolic Activation: RAT, LIVER, S-9, AROCLOR 1254 (10%), Method: PREINCUBATION", "result": "active; positive"},
      {"measurement": "mutagenic call", "setting": "Test System: AMES SALMONELLA TYPHIMURIUM, Strain/Indicator: TA1535, Metabolic Activation: HAMSTER, LIVER, S-9, AROCLOR 1254 (10%), Method: PREINCUBATION", "result": "inactive; negative"},
      {"measurement": "mutagenic call", "setting": "Test System: AMES SALMONELLA TYPHIMURIUM, Strain/Indicator: TA1535, Metabolic Activation: NONE, Method: PREINCUBATION", "result": "inactive; negative"},
      {"measurement": "mutagenic call", "setting": "Test System: AMES SALMONELLA TYPHIMURIUM, Strain/Indicator: TA1535, Metabolic Activation: RAT, LIVER, S-9, AROCLOR 1254 (10%), Method: PREINCUBATION", "result": "inactive; negative"}
    ]},
    {"smiles": "Cc1c(N)cc(N)cc1N", "values": [
      {"measurement": "mutagenic call", "setting": "Test System: CHINESE HAMSTER CELLS, Strain/Indicator: CHO CELLS(HPRT)/6-THIOGUANINE, Metabolic Activation: NONE, Method: SUSPENSION/PLATE", "result": "active; positive"},
      {"measurement": "mutagenic call", "setting": "Test System: CHINESE HAMSTER CELLS, Strain/Indicator: CHO CELLS(HPRT)/6-THIOGUANINE, Metabolic Activation: RAT LIVER S-9, AROCLOR 1254, Method: SUSPENSION/PLATE", "result": "inactive; negative"}
    ]}
  ]
}
